The record followed here is patent publication US9676782B2, “Substituted pyrazolo[1,5-a]pyrazines as negative allosteric modulators of metabotropic glutamate receptor 3” (Vanderbilt University, priority 2014, dated 2017).

In assay [1] the target is rat mGlu3 (Rattus norvegicus (Rat), UniProt P31422). The experiment in a line: mGlu3 Ca2+ flux assay. The format is cell-based. The settings on record: for remaining activity at 30 µM: amplitude of response at 30 μM test compound as % of maximal response to glutamate, read-out: rat mGlu3 Glu max (%); for mGlu3 Glu max: response at 30 μM compound as percentage of maximal glutamate response. Put shortly:
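This calcium mobilization assay used rat mGlu3 cells cultured overnight (37° C., 5% CO2) and read on the FDSS7000 after a 10 minute room-temperature incubation in 20 μL assay buffer. Each of 360 readings per well was divided by its initial value (F/F0). Potency came from fitting normalized responses against log concentration with an unconstrained 4 parameter logistic equation, weighting triplicate points equally.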
A general note: A change in cytosolic calcium serves as a functional read-out for many receptors and channels.

Assay [2] deals with rat mGlu5 (Rattus norvegicus (Rat), UniProt P31424). The experiment in a line: mGlu5 Ca2+ flux assay. It is filed as cell-based. The settings on record: for Fold selectivity (mGlu3 vs. mGlu5): ratio of rat mGlu5 EC50 or IC50 to rat mGlu3 IC50; for Emax at 30 µM: read-out: rat mGlu5 Glu max (%). Put shortly:
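Ca2+ flux read kinetically (FDSS7000) after overnight culture at 37° C/5% CO2 and a 5 min room-temperature buffer step following dye removal. Signals expressed per well as F/F0 and normalized to peak glutamate response; EC50 fitted by free 4-parameter logistic, three replicates per concentration equally weighted.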

The mark [3] stands for this setting: NAM potency, decrease of glutamate EC80 response, >30,000 = no measurable activity, >10,000 = no plateau, read-out: rat mGlu3 IC50.
Setting [4] is: read-out: rat mGlu5 EC50 or IC50.
[5] abbreviates: PAM, amplitude of response at 30 μM test compound as % of maximal response to glutamate.

Like-named read-outs stand apart in the source and are kept apart here.

Chain of rat mGlu3 (P31422 23-879): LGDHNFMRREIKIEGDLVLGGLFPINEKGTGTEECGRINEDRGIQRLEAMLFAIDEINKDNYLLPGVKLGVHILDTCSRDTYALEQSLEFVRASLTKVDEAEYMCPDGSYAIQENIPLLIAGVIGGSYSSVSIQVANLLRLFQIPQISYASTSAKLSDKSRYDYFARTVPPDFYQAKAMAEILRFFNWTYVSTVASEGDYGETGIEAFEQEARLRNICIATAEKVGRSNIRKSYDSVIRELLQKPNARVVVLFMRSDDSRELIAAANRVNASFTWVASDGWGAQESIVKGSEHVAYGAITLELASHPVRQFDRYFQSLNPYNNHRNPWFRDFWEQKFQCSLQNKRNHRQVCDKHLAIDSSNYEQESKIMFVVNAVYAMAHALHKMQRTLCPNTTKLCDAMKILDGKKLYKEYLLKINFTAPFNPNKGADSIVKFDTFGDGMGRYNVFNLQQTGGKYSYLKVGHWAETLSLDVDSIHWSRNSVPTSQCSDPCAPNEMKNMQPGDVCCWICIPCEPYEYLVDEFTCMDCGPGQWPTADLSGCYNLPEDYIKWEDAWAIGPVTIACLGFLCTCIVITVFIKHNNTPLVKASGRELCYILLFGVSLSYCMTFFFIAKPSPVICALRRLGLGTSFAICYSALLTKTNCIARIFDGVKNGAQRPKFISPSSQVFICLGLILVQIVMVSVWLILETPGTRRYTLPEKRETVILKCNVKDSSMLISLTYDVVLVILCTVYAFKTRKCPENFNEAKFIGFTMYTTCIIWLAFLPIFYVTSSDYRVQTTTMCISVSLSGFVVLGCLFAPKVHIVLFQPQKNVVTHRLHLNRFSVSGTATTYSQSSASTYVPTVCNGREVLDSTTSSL
Chain of rat mGlu5 (P31424 21-1203): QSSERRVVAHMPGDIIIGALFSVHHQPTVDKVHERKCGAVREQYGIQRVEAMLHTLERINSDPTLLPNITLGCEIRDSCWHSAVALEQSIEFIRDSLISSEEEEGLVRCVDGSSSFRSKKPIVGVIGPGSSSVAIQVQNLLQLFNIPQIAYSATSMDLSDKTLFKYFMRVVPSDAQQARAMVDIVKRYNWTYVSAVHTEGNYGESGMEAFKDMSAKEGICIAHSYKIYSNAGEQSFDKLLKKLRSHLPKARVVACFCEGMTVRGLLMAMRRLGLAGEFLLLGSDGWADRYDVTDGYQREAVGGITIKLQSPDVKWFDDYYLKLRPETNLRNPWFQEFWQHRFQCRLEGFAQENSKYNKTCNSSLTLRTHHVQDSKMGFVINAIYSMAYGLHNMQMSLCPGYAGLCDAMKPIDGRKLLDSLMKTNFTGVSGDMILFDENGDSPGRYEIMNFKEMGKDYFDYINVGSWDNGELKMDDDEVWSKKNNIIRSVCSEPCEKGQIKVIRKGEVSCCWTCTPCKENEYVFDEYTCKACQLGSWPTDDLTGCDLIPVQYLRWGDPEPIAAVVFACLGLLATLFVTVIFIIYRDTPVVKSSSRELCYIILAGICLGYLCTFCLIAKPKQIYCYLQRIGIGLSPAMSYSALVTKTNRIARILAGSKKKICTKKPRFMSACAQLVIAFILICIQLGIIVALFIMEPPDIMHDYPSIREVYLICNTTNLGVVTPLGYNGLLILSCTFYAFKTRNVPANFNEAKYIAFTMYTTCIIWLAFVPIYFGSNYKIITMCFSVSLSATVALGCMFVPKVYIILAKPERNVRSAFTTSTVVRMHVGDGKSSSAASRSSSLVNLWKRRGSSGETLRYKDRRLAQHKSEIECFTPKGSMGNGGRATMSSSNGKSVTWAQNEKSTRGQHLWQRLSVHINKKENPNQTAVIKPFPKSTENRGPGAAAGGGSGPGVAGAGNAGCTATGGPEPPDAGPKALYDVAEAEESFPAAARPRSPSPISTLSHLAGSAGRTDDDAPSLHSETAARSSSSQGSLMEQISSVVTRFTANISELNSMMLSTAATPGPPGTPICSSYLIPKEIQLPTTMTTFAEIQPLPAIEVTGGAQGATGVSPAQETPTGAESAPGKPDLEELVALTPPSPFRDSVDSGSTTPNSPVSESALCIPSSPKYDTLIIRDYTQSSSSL

Take `CC(Nc1ccc(Cl)cc1)c1cc2n(n1)CCN(c1ccc(F)cc1)C2=O` (stereo not drawn) [Compound 172, 2-(1-((4-chlorophenyl)amino)ethyl)-5-(4-fluorophenyl)-6,7-dihydropyrazolo[1,5-a]pyrazin-4(5H)-one]: the IC50 (usually the concentration that gives 50% inhibition) in assay [1] (setting [3]) came out at 1550 nM. Further, the remaining activity at 30 µM in assay [1] amounted to 1.29%. Further, in assay [2], the “Fold selectivity (mGlu3 vs. mGlu5)” value is >19. For the same compound, in assay [2] (setting [4]), the EC50 (usually the midpoint of the concentration-response curve) was > 30000 nM.

Regarding `COc1ccc(N(C)Cc2cc3n(n2)CCN(c2ccc(F)cn2)C3=O)cc1` [Compound 122, 5-(5-fluoropyridin-2-yl)-2-(((4-methoxyphenyl)(methyl)amino)methyl)-6,7-dihydropyrazolo[1,5-a]pyrazin-4(5H)-one], the IC50 in assay [1] (setting [3]) is 1140 nM. For the same compound, the remaining activity at 30 µM in assay [1] turned out to be 1.4%. In addition, the “Fold selectivity (mGlu3 vs. mGlu5)” value in assay [2] is listed as >26. The EC50 in assay [2] (setting [4]) is > 30000 nM.

For `COc1ccc(N(C)Cc2cc3n(n2)CCN(c2c(F)cc(Cl)cc2F)C3=O)cc1` [Compound 128, 5-(4-chloro-2,6-difluorophenyl)-2-(((4-methoxyphenyl)(methyl)amino)methyl)-6,7-dihydropyrazolo[1,5-a]pyrazin-4(5H)-one], the IC50 in assay [1] (setting [3]) worked out at 1860 nM. In addition, the remaining activity at 30 µM in assay [1] is 1.8%. Moreover, the “Fold selectivity (mGlu3 vs. mGlu5)” value in assay [2] was >16. The EC50 in assay [2] (setting [4]) was > 30000 nM.

As for `O=C1c2cc(CNc3ccc(OC(F)F)cc3F)nn2CCN1c1ccc(F)cc1` [Compound 37, 2-(((4-(difluoromethoxy)-2-fluorophenyl)amino)methyl)-5-(4-fluorophenyl)-6,7-dihydropyrazolo[1,5-a]pyrazin-4(5H)-one], in assay [1], the remaining activity at 30 µM was determined as 2.57%. Also, the IC50 in assay [1] (read-out: rat mGlu3 IC50) was 334 nM. The Emax at 30 µM in assay [2] (setting [5]) turned out to be 38.4%. Also, the “Fold selectivity (mGlu3 vs. mGlu5)” value in assay [2] is >29. Further, in assay [2] (setting [4]), the EC50 was > 10000 nM.

Take `COc1ccc(N(C)Cc2cc3n(n2)CCN(c2ccc(Cl)c(F)c2)C3=O)cc1` [Compound 136, 5-(4-chloro-3-fluorophenyl)-2-(((4-methoxyphenyl)(methyl)amino)methyl)-6,7-dihydropyrazolo[1,5-a]pyrazin-4(5H)-one]: the IC50 in assay [1] (setting [3]) was found to be 1270 nM. For the same compound, the remaining activity at 30 µM in assay [1] came to 2.43%. The “Fold selectivity (mGlu3 vs. mGlu5)” value in assay [2] is >23. In assay [2] (setting [4]), the EC50 was > 30000 nM.

Consider `COc1ccc(N(C)Cc2cc3n(n2)CCN(c2cccc(Cl)c2)C3=O)cc1` [Compound 98, 5-(3-chlorophenyl)-2-(((4-methoxyphenyl)(methyl)amino)methyl)-6,7-dihydropyrazolo[1,5-a]pyrazin-4(5H)-one], for which the IC50 in assay [1] (setting [3]) came out at 668 nM. Further, in assay [1], the remaining activity at 30 µM amounted to 1.53%. In assay [2], the “Fold selectivity (mGlu3 vs. mGlu5)” value is recorded as >44. For the same compound, in assay [2] (setting [4]), the EC50 is > 30000 nM.

For `COc1ccc(NCc2cc3n(n2)CCN(c2ccc(F)cc2)C3=O)cc1` [Compound 17, 5-(4-fluorophenyl)-2-(((4-methoxyphenyl)amino)methyl)-6,7-dihydropyrazolo[1,5-a]pyrazin-4(5H)-one], the IC50 in assay [1] (setting [3]) worked out at 2120 nM. Besides, in assay [1], the remaining activity at 30 µM came out at 1.55%. Besides, in assay [2], the “Fold selectivity (mGlu3 vs. mGlu5)” value is reported as >14. Also, in assay [2] (setting [4]), the EC50 is > 30000 nM.

For the compound `C[C@H]1CN(c2ccc(F)cc2)C(=O)c2cc(CNc3cc(F)cc(F)c3)nn21` [Compound 74, (S)-2-(((3,5-difluorophenyl)amino)methyl)-5-(4-fluorophenyl)-7-methyl-6,7-dihydropyrazolo[1,5-a]pyrazin-4(5H)-one], the IC50 in assay [1] (setting [3]) was determined as 2350 nM. The remaining activity at 30 µM in assay [1] was -2.19%. For the same compound, the Emax at 30 µM in assay [2] (setting [5]) was found to be 59.3%. Moreover, the “Fold selectivity (mGlu3 vs. mGlu5)” value in assay [2] is given as >4.2. Moreover, the EC50 in assay [2] (setting [4]) was > 10000 nM.

As for `O=C1c2cc(CNc3c(F)cccc3F)nn2CCN1c1ccc(F)cc1` [Compound 32, 2-(((2,6-difluorophenyl)amino)methyl)-5-(4-fluorophenyl)-6,7-dihydropyrazolo[1,5-a]pyrazin-4(5H)-one], the IC50 in assay [1] (setting [3]) came to 1050 nM. In addition, the remaining activity at 30 µM in assay [1] is 1.25%. In addition, the Emax at 30 µM in assay [2] (setting [5]) was 84.1%. Further, the “Fold selectivity (mGlu3 vs. mGlu5)” value in assay [2] amounted to 8.41. Moreover, in assay [2] (setting [4]), the EC50 amounted to 8830 nM.

Take `O=C1c2cc(CNc3ccc(OC(F)(F)F)cc3)nn2CCN1c1ccc(F)cc1` [Compound 21, 5-(4-fluorophenyl)-2-(((4-(trifluoromethoxy)phenyl)amino)methyl)-6,7-dihydropyrazolo[1,5-a]pyrazin-4(5H)-one]: the remaining activity at 30 µM in assay [1] turned out to be 13.3%. In addition, in assay [1] (read-out: rat mGlu3 IC50), the IC50 is > 10000 nM. In assay [2], the “Fold selectivity (mGlu3 vs. mGlu5)” value was >3. Moreover, the EC50 in assay [2] (setting [4]) was > 30000 nM.

In the case of `CN(Cc1cc2n(n1)CCN(c1ccc(F)cc1)C2=O)c1ccccc1` [drawing 29 X = NMe], the IC50 in assay [1] (Table 2 compounds with X = NMe, read-out: mGlu3 IC50) came to 1220 nM. The “mGlu3 Glu max” value in assay [1] (Table 2 compounds with X = NMe) came to 1%. Also, the EC50 in assay [2] (Table 2 compounds with X = NMe, read-out: mGlu5 EC50) is > 30000 nM.

On to `C[C@@H]1CN(c2ccc(F)cc2)C(=O)c2cc(CNc3c(F)cccc3F)nn21` [Compound 72, (R)-2-(((2,6-difluorophenyl)amino)methyl)-5-(4-fluorophenyl)-7-methyl-6,7-dihydropyrazolo[1,5-a]pyrazin-4(5H)-one], for which the remaining activity at 30 µM in assay [1] worked out at 4.1%. Also, in assay [2] (setting [5]), the Emax at 30 µM is 59.9%.

Regarding `COc1ccccc1N(C)Cc1cc2n(n1)CCN(c1ccc(F)cc1)C2=O` [Compound 85, 5-(4-fluorophenyl)-2-(((2-methoxyphenyl)(methyl)amino)methyl)-6,7-dihydropyrazolo[1,5-a]pyrazin-4(5H)-one], the IC50 in assay [1] (setting [3]) worked out at 9480 nM. Further, the remaining activity at 30 µM in assay [1] was -7.96%. Moreover, the “Fold selectivity (mGlu3 vs. mGlu5)” value in assay [2] was >3.1. Also, in assay [2] (setting [4]), the EC50 is > 30000 nM.

Consider `O=C1c2cc(CNc3ccc(C(F)(F)F)cc3)nn2CCN1c1ccc(F)cc1` [Compound 19, 5-(4-fluorophenyl)-2-(((4-(trifluoromethyl)phenyl)amino)methyl)-6,7-dihydropyrazolo[1,5-a]pyrazin-4(5H)-one], for which, in assay [1] (read-out: rat mGlu3 IC50), the IC50 is > 30000 nM. For the same compound, the EC50 in assay [2] (setting [4]) is > 30000 nM.

Regarding `O=C1c2cc(CNc3ccccc3)nn2CCN1c1ccc(F)cc1` [Compound 2, 5-(4-fluorophenyl)-2-((phenylamino)methyl)-6,7-dihydropyrazolo[1,5-a]pyrazin-4(5H)-one], in assay [1] (setting [3]), the IC50 is 1320 nM. Moreover, the remaining activity at 30 µM in assay [1] was determined as 1.99%. Also, the Emax at 30 µM in assay [2] (setting [5]) was determined as 98.3%. The “Fold selectivity (mGlu3 vs. mGlu5)” value in assay [2] is 1.55. In assay [2] (setting [4]), the EC50 worked out at 2040 nM.

Consider `COc1ccc(N(C)Cc2cc3n(n2)CCN(c2ccccc2C)C3=O)cc1` [Compound 111, 2-(((4-methoxyphenyl)(methyl)amino)methyl)-5-(o-tolyl)-6,7-dihydropyrazolo[1,5-a]pyrazin-4(5H)-one], for which the IC50 in assay [1] (setting [3]) was 2000 nM. Besides, the remaining activity at 30 µM in assay [1] stood at 0.74%. Also, the “Fold selectivity (mGlu3 vs. mGlu5)” value in assay [2] is recorded as >15. Further, the EC50 in assay [2] (setting [4]) was > 30000 nM.

As to `COc1ccc(N(C)Cc2cc3n(n2)CCN(c2cc(Cl)ccc2F)C3=O)cc1` [Compound 127, 5-(5-chloro-2-fluorophenyl)-2-(((4-methoxyphenyl)(methyl)amino)methyl)-6,7-dihydropyrazolo[1,5-a]pyrazin-4(5H)-one], the IC50 in assay [1] (setting [3]) was 1260 nM; in assay [2] (compound noted as NAM or partial antagonist (PAnt) at mGlu5, glutamate EC80, read-out: rat mGlu5 EC50 or IC50), > 10000 nM. In assay [1], the remaining activity at 30 µM came to 2.32%. For the same compound, in assay [2] (compound noted as NAM or partial antagonist (PAnt) at mGlu5, response at 30 μM as % of maximal glutamate response), the Emax at 30 µM stood at 54.6%. In addition, the “Fold selectivity (mGlu3 vs. mGlu5)” value in assay [2] is listed as >7.9.

On to `C[C@H]1CN(c2ccc(F)cc2)C(=O)c2cc(CNc3ccc(OC(F)F)cc3)nn21` [Compound 65, (S)-2-(((4-(difluoromethoxy)phenyl)amino)methyl)-5-(4-fluorophenyl)-7-methyl-6,7-dihydropyrazolo[1,5-a]pyrazin-4(5H)-one], for which, in assay [1] (setting [3]), the IC50 worked out at 1340 nM. For the same compound, in assay [1], the remaining activity at 30 µM is 2.16%. In addition, the “Fold selectivity (mGlu3 vs. mGlu5)” value in assay [2] is listed as >22. The EC50 in assay [2] (setting [4]) was > 30000 nM.

Turning to `C[C@@H]1CN(c2ccc(F)cc2)C(=O)c2cc(CNc3ccc(CC#N)cc3)nn21` [Compound 66, (R)-2-(4-(((5-(4-fluorophenyl)-7-methyl-4-oxo-4,5,6,7-tetrahydropyrazolo[1,5-a]pyrazin-2-yl)methyl)amino)phenyl)acetonitrile], in assay [1] (setting [3]), the IC50 amounted to 1460 nM. Besides, the remaining activity at 30 µM in assay [1] worked out at 0.95%. Besides, the “Fold selectivity (mGlu3 vs. mGlu5)” value in assay [2] is recorded as >20. The EC50 in assay [2] (setting [4]) was > 30000 nM.

With `O=C1c2cc(CNc3ccccc3)nn2CCN1c1ccc(F)cc1` [drawing 29 X = NH], the IC50 in assay [1] (Table 2 compounds with X = NH, read-out: mGlu3 IC50) turned out to be 1320 nM. Besides, the “mGlu3 Glu max” value in assay [1] (Table 2 compounds with X = NH) stood at 2%. In addition, the concentration giving a half-maximal response (EC50) in assay [2] (Table 2 compounds with X = NH, read-out: mGlu5 EC50) is 2040 nM. Besides, the “mGlu5 Glu max” value in assay [2] (Table 2 compounds with X = NH, response at 30 μM compound as percentage of maximal glutamate response) was 98%.

Turning to `COc1ccc(NCc2cc3n(n2)CCN(c2ccc(Cl)cc2)C3=O)cc1` [Compound 81, 5-(4-chlorophenyl)-2-(((4-methoxyphenyl)amino)methyl)-6,7-dihydropyrazolo[1,5-a]pyrazin-4(5H)-one], the IC50 in assay [1] (setting [3]) was 1360 nM. For the same compound, in assay [1], the remaining activity at 30 µM turned out to be 15.4%. In addition, the “Fold selectivity (mGlu3 vs. mGlu5)” value in assay [2] was >22. In assay [2] (setting [4]), the concentration for a half-maximal effect (EC50) was > 30000 nM.
